Results taken from patent US7446199B2, “Compositions useful as inhibitors of protein kinases” (Vertex Pharmaceuticals Incorporated, priority 2003, dated 2008).

Key:
c-Met = c-Met (Homo sapiens, UniProt P08581); assay: Ki determination for the inhibition of c-Met, coupled enzyme system; assay type: biochemical; settings: 200 μM ATP, 10 μM polyGluTyr, 80 nM c-Met, 30° C.
Method in brief: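 Coupled pyruvate kinase/lactate dehydrogenase NADH assay with 80 nM c-Met, 200 μM ATP, 10 μM polyGluTyr in pH 7.5 HEPES, 1.5% DMSO at 30° C. Compound (0.006–12.5 μM final, 12-point) preincubated 10 min; ATP started reaction, rates read over 10 min; Ki derived from rate versus inhibitor concentration.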

c-KIT = target: T1, c-KIT (Homo sapiens, UniProt P10721); assay: Inhibition of c-KIT, radiometric filter-binding assay; assay type: biochemical; settings: 700 μM ATP, 0.5 mg/mL pE4Y, room temperature
T1 construct: 0.02% BSA and 25 nM c-KIT
T1 sequence (P10721 26-976): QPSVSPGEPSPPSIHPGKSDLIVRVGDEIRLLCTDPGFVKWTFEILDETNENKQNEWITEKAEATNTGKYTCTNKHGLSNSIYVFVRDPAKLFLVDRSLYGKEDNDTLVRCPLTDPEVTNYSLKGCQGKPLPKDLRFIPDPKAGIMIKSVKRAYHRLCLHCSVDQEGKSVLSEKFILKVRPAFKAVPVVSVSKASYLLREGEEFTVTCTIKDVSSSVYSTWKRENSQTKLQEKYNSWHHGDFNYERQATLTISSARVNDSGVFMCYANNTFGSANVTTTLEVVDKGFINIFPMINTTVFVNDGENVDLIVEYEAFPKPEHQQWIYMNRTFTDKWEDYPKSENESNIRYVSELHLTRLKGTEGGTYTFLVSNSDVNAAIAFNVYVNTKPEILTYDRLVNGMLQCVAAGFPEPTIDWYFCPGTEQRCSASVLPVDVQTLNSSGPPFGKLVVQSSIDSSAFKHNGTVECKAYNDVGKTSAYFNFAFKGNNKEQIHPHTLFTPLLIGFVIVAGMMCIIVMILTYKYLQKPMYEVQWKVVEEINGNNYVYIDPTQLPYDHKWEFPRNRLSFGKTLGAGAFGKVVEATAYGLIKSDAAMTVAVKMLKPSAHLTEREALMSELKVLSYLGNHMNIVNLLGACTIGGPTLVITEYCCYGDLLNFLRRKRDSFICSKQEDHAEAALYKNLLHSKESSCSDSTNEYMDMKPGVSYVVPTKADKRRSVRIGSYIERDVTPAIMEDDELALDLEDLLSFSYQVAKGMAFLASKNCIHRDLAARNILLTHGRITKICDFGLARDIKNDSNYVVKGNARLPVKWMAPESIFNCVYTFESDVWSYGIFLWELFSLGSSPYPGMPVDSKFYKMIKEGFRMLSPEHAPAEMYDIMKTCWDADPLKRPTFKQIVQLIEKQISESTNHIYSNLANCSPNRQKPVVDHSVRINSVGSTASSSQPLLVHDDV
Procedure: Compounds are screened for their ability to inhibit c-KIT activity using a radiometric filter-binding assay. This assay monitors the ^33P incorporation into a substrate poly(Glu, Tyr) 4:1 (pE4Y). Reactions are carried out in a solution containing 100 mM HEPES (pH 7.5), 10 mM MgCl2, 25 mM NaCl, 1 mM DTT, 0.01% BSA and 2.5% DMSO. Final substrate concentrations in the assay were 700 μM ATP and 0.5 mg/mL pE4Y (both from Sigma Chemicals, St Louis, Mo.). The final concentration of compounds is generally between 0.01 and 5 μM. Typically, a 12-point titration is conducted by preparing serial dilutions from 10 mM DMSO stock of test compound. Reactions were carried out at room temperature.
Two assay solutions are prepared. Solution 1 contains 100 mM HEPES (pH 7.5), 10 mM MgCl2, 25 mM NaCl, 1 mg/ml pE4Y and 1.4 mM ATP(containing 0.5 μCi of [γ-^33P]ATP for each reaction). Solution 2 contains 100 mM HEPES (pH 7.5), 10 mM MgCl2, 25 mM NaCl, 2 mM DTT, 0.02% BSA and 25 nM c-KIT. The assay is run on a 96 well plate by mixing 33 μL of Solution1 and 1.65 μL of the test compounds. The reaction is initiated with 33 μL of Solution2. After incubation for 20 minutes at room temperature, the reaction was stopped with 50 μL of 10% TCA containing 0.2 mM of ATP. All of the reaction volume is then transferred to a filter plate and washed with 5% TCA by a Harvester9600 from TOMTEC (Hamden, Conn.). The amount of ^33P incorporation into pE4y is analyzed by a Packard TopCount Microplate Scintillation Counter (Meriden, Conn.). The data is fitted using Prism software to get an IC50 or Ki.

c-Met, sequence (P08581 25-1390): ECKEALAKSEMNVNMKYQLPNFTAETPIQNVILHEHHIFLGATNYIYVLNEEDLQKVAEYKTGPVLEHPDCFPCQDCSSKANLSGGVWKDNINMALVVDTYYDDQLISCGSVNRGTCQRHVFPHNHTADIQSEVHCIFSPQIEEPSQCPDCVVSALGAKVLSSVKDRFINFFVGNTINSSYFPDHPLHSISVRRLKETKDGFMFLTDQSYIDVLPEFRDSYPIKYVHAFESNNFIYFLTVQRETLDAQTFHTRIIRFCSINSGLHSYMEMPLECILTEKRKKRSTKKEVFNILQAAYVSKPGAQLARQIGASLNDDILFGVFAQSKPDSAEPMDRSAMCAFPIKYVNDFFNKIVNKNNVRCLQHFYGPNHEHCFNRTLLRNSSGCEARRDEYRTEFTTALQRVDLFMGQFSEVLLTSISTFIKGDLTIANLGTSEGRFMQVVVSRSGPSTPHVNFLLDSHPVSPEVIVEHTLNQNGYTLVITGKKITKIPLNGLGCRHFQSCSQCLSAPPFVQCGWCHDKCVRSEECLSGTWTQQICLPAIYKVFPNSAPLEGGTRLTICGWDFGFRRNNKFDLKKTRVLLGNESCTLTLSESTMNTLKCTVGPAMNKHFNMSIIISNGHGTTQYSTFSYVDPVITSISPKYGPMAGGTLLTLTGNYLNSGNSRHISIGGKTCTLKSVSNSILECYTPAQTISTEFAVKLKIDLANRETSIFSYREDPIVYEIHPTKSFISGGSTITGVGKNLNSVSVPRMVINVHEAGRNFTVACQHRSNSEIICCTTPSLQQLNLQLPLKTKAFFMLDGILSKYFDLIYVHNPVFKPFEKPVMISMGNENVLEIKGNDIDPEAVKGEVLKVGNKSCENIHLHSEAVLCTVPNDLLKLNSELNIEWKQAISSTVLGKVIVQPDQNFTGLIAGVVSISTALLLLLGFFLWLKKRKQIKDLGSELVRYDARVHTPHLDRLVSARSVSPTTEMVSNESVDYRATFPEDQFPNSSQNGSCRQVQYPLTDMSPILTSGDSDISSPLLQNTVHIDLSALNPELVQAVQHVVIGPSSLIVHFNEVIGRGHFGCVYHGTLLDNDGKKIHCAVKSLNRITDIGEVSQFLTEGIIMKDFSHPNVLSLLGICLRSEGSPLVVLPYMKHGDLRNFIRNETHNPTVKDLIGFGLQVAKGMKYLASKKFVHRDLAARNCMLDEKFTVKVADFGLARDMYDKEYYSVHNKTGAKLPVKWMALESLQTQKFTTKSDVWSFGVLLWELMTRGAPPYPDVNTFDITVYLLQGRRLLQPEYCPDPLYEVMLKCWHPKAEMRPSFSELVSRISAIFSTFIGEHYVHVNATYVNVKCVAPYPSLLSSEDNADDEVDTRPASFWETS

| Structure (SMILES) | Ki (c-Met) | Ki (c-KIT) |
| --- | --- | --- |
| Fc1ccc(-c2cnoc2-c2c[nH]c3ncccc23)c(F)c1F [Compound 40, 3-[4-(2,3,4-Trifluoro-phenyl)-isoxazol-5-yl]-1H-pyrrolo [2,3-b]pyridine] | < 200 nM | 200 to 1000 nM |
| Fc1cccc(-c2cnoc2-c2c[nH]c3ncc(-c4ccccn4)cc23)c1F [Compound 73, 3-(4-(2,3-Difluoro-phenyl)-isoxazol-5-yl)-5-pyridin-2-yl-1H-pyrrolo[2,3-b]pyridine] | < 200 nM | < 200 nM |
| CN1CCN(c2ccc(-c3cnc4[nH]cc(-c5oncc5-c5cccc(F)c5F)c4c3)cc2)CC1 [Compound 70, 3-[4-(2,3-Difluoro-phenyl)-isoxazol-5-yl]-5-[4-(4-methyl-piperazin-1-yl)-phenyl]-1H-pyrrolo[2,3-b]pyridine methanesulfonate] | < 200 nM | < 200 nM |
| Fc1cccc(-c2cnoc2-c2c[nH]c3ncc(-c4cccnc4)cc23)c1F [Compound 59, 3-[4-(2,3-Difluoro-phenyl)-isoxazol-5-yl]-5-pyridin-3-yl-1H-pyrrolo[2,3-b]pyridine] | < 200 nM | < 200 nM |
| Fc1cccc(-c2cnoc2-c2c[nH]c3ncc(-c4c[nH]cn4)cc23)c1F [Compound 76, 3-[4-(2,3-Difluoro-phenyl)-isoxazol-5-yl]-5-(3H-imidazol-4-yl)-1H-pyrrolo[2,3-b]pyridine] | < 200 nM | < 200 nM |
| COc1cnc2[nH]cc(-c3oncc3-c3cccc(F)c3F)c2c1 [Compound 38, 3-[4-(2,3-Difluoro-phenyl)-isoxazol-5-yl]-5-methoxy-1H-pyrrolo[2,3-b]pyridine] | < 200 nM | < 200 nM |
| O=c1ccc(-c2cnc3[nH]cc(-c4oncc4-c4cccc(F)c4F)c3c2)c[nH]1 [Compound 67, 5-{3-[4-(2,3-Difluoro-phenyl)-isoxazol-5-yl]-1H-pyrrolo [2,3-b]pyridin-5-yl}-1H-pyridin-2-one] | < 200 nM | < 200 nM |
| Oc1cnc2[nH]cc(-c3oncc3-c3cccc(Cl)c3Cl)c2c1 [Compound 48, 3-[4-(2,3-Dichloro-phenyl)-isoxazol-5-yl]-1H-pyrrolo[2,3-b]pyridin-5-ol] | < 200 nM | 200 to 1000 nM |
| CCN1CCC(c2cnc3[nH]cc(-c4oncc4-c4cccc(F)c4F)c3c2)CC1 [Compound 72, 3-[4-(2,3-Difluoro-phenyl)-isoxazol-5-yl]-5-(1-ethyl-piperidin-4-yl)-1H-pyrrolo[2,3-b]pyridine] | < 200 nM | < 200 nM |
| Fc1cccc(-c2cnoc2-c2c[nH]c3ncc(-c4ccc(N5CCNCC5)cc4)cc23)c1F [Compound 68, 3-[4-(2,3-Difluoro-phenyl)-isoxazol-5-yl]-5-(4-piperazin-1-yl-phenyl)-1H-pyrrolo[2,3-b]pyridine] | < 200 nM | < 200 nM |
| CN(C)c1cccc(-c2cnc3[nH]cc(-c4oncc4-c4cccc(F)c4F)c3c2)c1 [Compound 61, (3-{3-[4-(2,3-Difluoro-phenyl)-isoxazol-5-yl]-1H-pyrrolo[2,3-b]pyridin-5-yl}-phenyl)-dimethyl-amine] | < 200 nM | < 200 nM |
| Fc1ccc(-c2cnc3[nH]cc(-c4oncc4-c4cccc(F)c4F)c3c2)cn1 [Compound 69, 3-[4-(2,3-Difluoro-phenyl)-isoxazol-5-yl]-5-(6-fluoro-pyridin-3-yl)-1H-pyrrolo[2,3-b]pyridine] | < 200 nM | < 200 nM |
| Fc1cccc(-c2cnoc2-c2c[nH]c3ncc(-c4cnc5[nH]ccc5c4)cc23)c1F [Compound 77, 3-[4-(2,3-Difluoro-phenyl)-isoxazol-5-yl]-1H,1′H-[5,5′]bi[pyrrolo[2,3-b]pyridinyl]] | < 200 nM | < 200 nM |

The remaining lines, values ahead:

| Ki (c-Met) | Ki (c-KIT) | Structure (SMILES) |
| --- | --- | --- |
| < 200 nM | < 200 nM | Nc1cccc(-c2cnc3[nH]cc(-c4oncc4-c4cccc(F)c4F)c3c2)c1 [Compound 86, 3-{3-[4-(2,3-Difluoro-phenyl)-isoxazol-5-yl]-1H-pyrrolo [2,3-b]pyridin-5-yl}-phenylamine] |
| < 200 nM | < 200 nM | Fc1cccc(-c2cnoc2-c2c[nH]c3ncc(C4=CCC(NCc5ccccc5)CC4)cc23)c1F (stereo not shown) [Compound 136, Benzyl-(4-{3-[4-(2,3-difluoro-phenyl)-isoxazol-5-yl]-1H-pyrrolo[2,3-b]pyridin-5-yl}-cyclohex-3-enyl)-amine] |
| < 200 nM | < 200 nM | Fc1cccc(-n2cnnc2-c2c[nH]c3ncc(-c4ccc(CN5CCOCC5)cc4)cc23)c1F [Compound 109, 3-[4-(2,3-Difluoro-phenyl)-4H-[1,2,4]triazol-3-yl]-5-(4-morpholin-4-ylmethyl-phenyl)-1H-pyrrolo[2,3-b]pyridine] |
| < 200 nM | < 200 nM | Nc1ccc(-c2cnc3[nH]cc(-c4oncc4-c4cccc(F)c4F)c3c2)cc1 [Compound 90, 4-{3-[4-(2,3-Difluoro-phenyl)-isoxazol-5-yl]-1H-pyrrolo [2,3-b]pyridin-5-yl}-phenylamine] |
| < 200 nM | < 200 nM | COc1cncc(-c2cnc3[nH]cc(-c4oncc4-c4cccc(F)c4F)c3c2)c1 [Compound 96, 3-[4-(2,3-Difluoro-phenyl)-isoxazol-5-yl]-5-(5-methoxy-pyridin-3-yl)-1H-pyrrolo[2,3-b]pyridine] |
| < 200 nM | < 200 nM | Fc1cccc(-n2cnnc2-c2c[nH]c3ncc(-c4ccncc4)cc23)c1F [Compound 114, 3-[4-(2,3-Difluoro-phenyl)-4H-[1,2,4]triazol-3-yl]-5-pyridin-4-yl-1H-pyrrolo[2,3-b]pyridine] |
| < 200 nM | < 200 nM | CS(=O)(=O)NC1CC=C(c2cnc3[nH]cc(-c4oncc4-c4cccc(F)c4F)c3c2)CC1 (stereo not shown) [Compound 140, N-(4-{3-[4-(2,3-Difluoro-phenyl)-isoxazol-5-yl]-1H-pyrrolo[2,3-b]pyridin-5-yl}-cyclohex-3-enyl)-methanesulfonamide] |
| < 200 nM | < 200 nM | Nc1ccnc(-c2cnc3[nH]cc(-c4oncc4-c4cccc(F)c4F)c3c2)c1 [Compound 83, 2-{3-[4-(2,3-Difluoro-phenyl)-isoxazol-5-yl]-1H-pyrrolo [2,3-b]pyridin-5-yl}-pyridin-4-ylamine] |
| < 200 nM | < 200 nM | CN(C)Cc1ccnc(-c2cnc3[nH]cc(-c4oncc4-c4cccc(F)c4F)c3c2)c1 [Compound 82, (2-{3-[4-(2,3-Difluoro-phenyl)-isoxazol-5-yl]-1H-pyrrolo[2,3-b]pyridin-5-yl}-pyridin-4-ylmethyl)-dimethyl-amine] |
| < 200 nM | < 200 nM | CN(C)Cc1ccc(-c2cnc3[nH]cc(-c4oncc4-c4cccc(F)c4F)c3c2)cc1 [Compound 91, (4-{3-[4-(2,3-Difluoro-phenyl)-isoxazol-5-yl]-1H-pyrrolo[2,3-b]pyridin-5-yl}-benzyl)-dimethyl-amine] |
| < 200 nM | 200 to 1000 nM | CN1CCN(c2ccc(-c3cnc4[nH]cc(-c5nncn5-c5cccc(F)c5F)c4c3)cn2)CC1 [Compound 112] |
| 200 to 1000 nM | 200 to 1000 nM | Cn1ccc2c(-c3oncc3-c3cccc(F)c3F)c[nH]c2c1=O [Compound 144, 3-[4-(2,3-Difluoro-phenyl)-isoxazol-5-yl]-6-methyl-1,6-dihydro-pyrrolo[2,3-c]pyridin-7-one] |
| < 200 nM | 200 to 1000 nM | Fc1cccc(-n2cnnc2-c2c[nH]c3ncc(-c4ccc(N5CCC[C@H]5CN5CCCC5)nc4)cc23)c1F [Compound 115, 3-[4-(2,3-Difluoro-phenyl)-4H-[1,2,4]triazol-3-yl]-5-[6-(2-pyrrolidin-1-ylmethyl-pyrrolidin-1-yl)-pyridin-3-yl]-1H-pyrrolo[2,3-b]pyridine] |
| < 200 nM | < 200 nM | CN1CCN(c2ccc(-c3cnc4[nH]cc(-c5nncn5-c5cccc(F)c5F)c4c3)cc2)CC1 [Compound 110, 3-[4-(2,3-Difluoro-phenyl)-4H-[1,2,4]triazol-3-yl]-5-[4-(4-methyl-piperazin-1-yl)-phenyl]-1H-pyrrolo[2,3-b]pyridine] |
| < 200 nM | < 200 nM | Fc1cccc(-c2cnoc2-c2c[nH]c3ncc(-c4ccc(CN5CCOCC5)cc4)cc23)c1F [Compound 92, 3-[4-(2,3-Difluoro-phenyl)-isoxazol-5-yl]-5-(4-morpholin-4-ylmethyl-phenyl)-1H-pyrrolo[2,3-b]pyridine] |
| < 200 nM | < 200 nM | NC1CC=C(c2cnc3[nH]cc(-c4oncc4-c4cccc(F)c4F)c3c2)CC1 (stereo not shown) [Compound 137, 4-{3-[4-(2,3-Difluoro-phenyl)-isoxazol-5-yl]-1H-pyrrolo [2,3-b]pyridin-5-yl}-cyclohex-3-enylamine] |
